Target: T1, EstR (Atu5211) (Agrobacterium fabrum, UniProt A9CLK2)
T1 construct: full length, non-tagged, pETBlue-2, E. coli BL21(DE3), heparin and Q-Sepharose columns
T1 sequence (A9CLK2 1-155): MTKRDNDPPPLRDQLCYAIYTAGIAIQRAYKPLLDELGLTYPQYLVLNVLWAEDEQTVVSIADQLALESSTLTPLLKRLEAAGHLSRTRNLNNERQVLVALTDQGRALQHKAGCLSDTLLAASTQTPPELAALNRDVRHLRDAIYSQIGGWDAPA
Test: gel mobility shift: loss of EstR binding to […]-labelled 314-bp estR-estC promoter DNA
Conditions: 1 mM CHP; pH 7.0, 25 C; covalent (oxidation of sensing Cys16)

With CC(C)(OO)c1ccccc1 [CHP, cumene hydroperoxide] the “gel mobility shift: loss of EstR binding to 32P-labelled 314-bp estR-estC promot” value was “prior CHP treatment of EstR prevented the repressor from binding to the promoter fragment”.
